Experiments:
redroot pigweed [1] = assay: Test Example 5: herbicidal effect by foliage application, plastic box (Table 20, symbol N); assay type: in vivo, redroot pigweed (Amaranthus retroflexus); conditions: foliage application, AAH 80 g/ha, three weeks after application
Method in brief: (§1)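 Post-emergence foliar test in sterilized diluvial soil. Compound applied as water-diluted emulsion at a predetermined rate to 14-day-old plants; evaluation at three weeks.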

Italian ryegrass [2] = assay: Test Example 5: herbicidal effect by foliage application, plastic box (Table 20, symbol K); assay type: in vivo, Italian ryegrass (Lolium multiflorum); conditions: foliage application, AAH 80 g/ha, three weeks after application
Method in brief: as §1

green foxtail [3] = assay: Test Example 4: herbicidal effect by soil treatment (Table 19, symbol G); assay type: in vivo, green foxtail (Setaria viridis); conditions: AAH 80 g/ha
Method in brief: (§2)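 Scoring uses the grading scale of an earlier test, three weeks post-application. Treatment consists of spraying a diluted emulsion formulation across the surface of sterilized diluvial soil in which seeds are buried near 1.5 cm deep; boxes are kept in a greenhouse between 25° C. and 30° C.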

barnyard grass [4] = assay: Test Example 3: herbicidal effect by foliage application, Wagner pot (Table 18, symbol H); assay type: in vivo, barnyard grass (Echinochloa crus-galli); conditions: 80 g/ha
Method in brief: (§3)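 Plants were sown in alluvial soil held under 0.1–0.5 cm standing water and grown 14 days in a greenhouse at 25–30 °C. An emulsifiable formulation, water-diluted to the set dose, was then sprayed onto the foliage, and effects were scored three weeks later using previously defined criteria.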

southern crabgrass [5] = assay: Test Example 4: herbicidal effect by soil treatment (Table 19, symbol F); assay type: in vivo, southern crabgrass (Digitaria ciliaris); conditions: AAH 80 g/ha
Method in brief: as §2

Chinese sprangletop = assay: Test Example 3: herbicidal effect by foliage application, Wagner pot (Table 18, symbol D); assay type: in vivo, chinese sprangletop (Leptochloa chinensis); conditions: 80 g/ha
Method in brief: as §3

Italian ryegrass [6] = assay: Test Example 4: herbicidal effect by soil treatment (Table 19, symbol K); assay type: in vivo, Italian ryegrass (Lolium multiflorum); conditions: AAH 80 g/ha
Method in brief: as §2

wild oat [7] = assay: Test Example 4: herbicidal effect by soil treatment (Table 19, symbol I); assay type: in vivo, wild oat (Avena fatua); conditions: AAH 80 g/ha
Method in brief: as §2

barnyard grass [8] = assay: Test Example 4: herbicidal effect by soil treatment (Table 19, symbol H); assay type: in vivo, barnyard grass (Echinochloa crus-galli); conditions: AAH 80 g/ha
Method in brief: as §2

windgrass [9] = assay: Test Example 5: herbicidal effect by foliage application, plastic box (Table 20, symbol L); assay type: in vivo, windgrass (Apera spica-venti); conditions: foliage application, AAH 80 g/ha, three weeks after application
Method in brief: as §1

persian speedwell [10] = assay: Test Example 5: herbicidal effect by foliage application, plastic box (Table 20, symbol R); assay type: in vivo, Persian speedwell (Veronica persica); conditions: foliage application, AAH 80 g/ha, three weeks after application
Method in brief: as §1

redroot pigweed [11] = assay: Test Example 4: herbicidal effect by soil treatment (Table 19, symbol N); assay type: in vivo, redroot pigweed (Amaranthus retroflexus); conditions: AAH 80 g/ha
Method in brief: as §2

lambsquarters [12] = assay: Test Example 5: herbicidal effect by foliage application, plastic box (Table 20, symbol O); assay type: in vivo, lambsquarters (Chenopodium album); conditions: foliage application, AAH 80 g/ha, three weeks after application
Method in brief: as §1

persian speedwell [13] = assay: Test Example 4: herbicidal effect by soil treatment (Table 19, symbol R); assay type: in vivo, Persian speedwell (Veronica persica); conditions: AAH 80 g/ha
Method in brief: as §2

chickweed [14] = assay: Test Example 4: herbicidal effect by soil treatment (Table 19, symbol P); assay type: in vivo, common chickweed (Stellaria media); conditions: AAH 80 g/ha
Method in brief: as §2

blackgrass [15] = assay: Test Example 5: herbicidal effect by foliage application, plastic box (Table 20, symbol J); assay type: in vivo, blackgrass (Alopecurus myosuroides); conditions: foliage application, AAH 80 g/ha, three weeks after application
Method in brief: as §1

windgrass [16] = assay: Test Example 4: herbicidal effect by soil treatment (Table 19, symbol L); assay type: in vivo, windgrass (Apera spica-venti); conditions: AAH 80 g/ha
Method in brief: as §2

southern crabgrass [17] = assay: Test Example 5: herbicidal effect by foliage application, plastic box (Table 20, symbol F); assay type: in vivo, southern crabgrass (Digitaria ciliaris); conditions: foliage application, AAH 80 g/ha, three weeks after application
Method in brief: as §1

velvetleaf [18] = assay: Test Example 5: herbicidal effect by foliage application, plastic box (Table 20, symbol M); assay type: in vivo, velvetleaf (Abutilon theophrasti); conditions: foliage application, AAH 80 g/ha, three weeks after application
Method in brief: as §1

lambsquarters [19] = assay: Test Example 4: herbicidal effect by soil treatment (Table 19, symbol O); assay type: in vivo, lambsquarters (Chenopodium album); conditions: AAH 80 g/ha
Method in brief: as §2

wild oat [20] = assay: Test Example 5: herbicidal effect by foliage application, plastic box (Table 20, symbol I); assay type: in vivo, wild oat (Avena fatua); conditions: foliage application, AAH 80 g/ha, three weeks after application
Method in brief: as §1

rice flat sedge = assay: Test Example 3: herbicidal effect by foliage application, Wagner pot (Table 18, symbol E); assay type: in vivo, rice flat sedge (Cyperus iria); conditions: 80 g/ha
Method in brief: as §3

green foxtail [21] = assay: Test Example 5: herbicidal effect by foliage application, plastic box (Table 20, symbol G); assay type: in vivo, green foxtail (Setaria viridis); conditions: foliage application, AAH 80 g/ha, three weeks after application
Method in brief: as §1

blackgrass [22] = assay: Test Example 4: herbicidal effect by soil treatment (Table 19, symbol J); assay type: in vivo, blackgrass (Alopecurus myosuroides); conditions: AAH 80 g/ha
Method in brief: as §2

barnyard grass [23] = assay: Test Example 5: herbicidal effect by foliage application, plastic box (Table 20, symbol H); assay type: in vivo, barnyard grass (Echinochloa crus-galli); conditions: foliage application, AAH 80 g/ha, three weeks after application
Method in brief: as §1

chickweed [24] = assay: Test Example 5: herbicidal effect by foliage application, plastic box (Table 20, symbol P); assay type: in vivo, common chickweed (Stellaria media); conditions: foliage application, AAH 80 g/ha, three weeks after application
Method in brief: as §1

velvetleaf [25] = assay: Test Example 4: herbicidal effect by soil treatment (Table 19, symbol M); assay type: in vivo, velvetleaf (Abutilon theophrasti); conditions: AAH 80 g/ha
Method in brief: as §2

Structure (SMILES) | N: redroot pigweed, herbicidal effect (redroot pigweed [1]) | K: Italian ryegrass, herbicidal effect (Italian ryegrass [2]) | G: green foxtail, herbicidal effect rating (green foxtail [3]) | herbicidal effect on H (barnyard grass), rating 0-5 (barnyard grass [4]) | F: southern crabgrass, herbicidal effect rating (southern crabgrass [5]) | herbicidal effect on D (Chinese sprangletop), rating 0-5 (Chinese sprangletop) | K: Italian ryegrass, herbicidal effect rating (Italian ryegrass [6]) | I: wild oat, herbicidal effect rating (wild oat [7]) | H: barnyard grass, herbicidal effect rating (barnyard grass [8]) | L: windgrass, herbicidal effect (windgrass [9]) | R: persian speedwell, herbicidal effect (persian speedwell [10]) | N: redroot pigweed, herbicidal effect rating (redroot pigweed [11]) | O: lambsquarters, herbicidal effect (lambsquarters [12]) | R: persian speedwell, herbicidal effect rating (persian speedwell [13]) | P: chickweed, herbicidal effect rating (chickweed [14]) | J: blackgrass, herbicidal effect (blackgrass [15]) | L: windgrass, herbicidal effect rating (windgrass [16]) | F: southern crabgrass, herbicidal effect (southern crabgrass [17]) | M: velvetleaf, herbicidal effect (velvetleaf [18]) | O: lambsquarters, herbicidal effect rating (lambsquarters [19]) | further results
COc1nn(C)c(=O)c(-c2c(-c3ccc(OC(F)(F)F)cc3)sc3ccccc23)c1O [1-162] | 4 (Herbicidal rate of 70% or more and less than 90%) | 0 (Herbicidal rate of 5% or less (almost no effect)) | 0 (Herbicidal rate of 5% or less (almost no effect)) | 4 (Herbicidal rate of 70% or more and less than 90%) | 0 (Herbicidal rate of 5% or less (almost no effect)) | 3 (Herbicidal rate of 40% or more and less than 70%) | 0 (Herbicidal rate of 5% or less (almost no effect)) | 0 (Herbicidal rate of 5% or less (almost no effect)) | 0 (Herbicidal rate of 5% or less (almost no effect)) | 0 (Herbicidal rate of 5% or less (almost no effect)) | 5 (Herbicidal rate of 90% or more (almost completely withered)) | 1 (Herbicidal rate of 5% or more and less than 20%) | 3 (Herbicidal rate of 40% or more and less than 70%) | 0 (Herbicidal rate of 5% or less (almost no effect)) | 2 (Herbicidal rate of 20% or more and less than 40%) | 0 (Herbicidal rate of 5% or less (almost no effect)) | 0 (Herbicidal rate of 5% or less (almost no effect)) | 0 (Herbicidal rate of 5% or less (almost no effect)) | 3 (Herbicidal rate of 40% or more and less than 70%) | 4 (Herbicidal rate of 70% or more and less than 90%) | I: wild oat, herbicidal effect (wild oat [20]): 0 (Herbicidal rate of 5% or less (almost no effect)); herbicidal effect on E (rice flat sedge), rating 0-5 (rice flat sedge): 5 (Herbicidal rate of 90% or more (almost completely withered)); G: green foxtail, herbicidal effect (green foxtail [21]): 0 (Herbicidal rate of 5% or less (almost no effect)); J: blackgrass, herbicidal effect rating (blackgrass [22]): 0 (Herbicidal rate of 5% or less (almost no effect)); H: barnyard grass, herbicidal effect (barnyard grass [23]): 0 (Herbicidal rate of 5% or less (almost no effect)); P: chickweed, herbicidal effect (chickweed [24]): 5 (Herbicidal rate of 90% or more (almost completely withered)); M: velvetleaf, herbicidal effect rating (velvetleaf [25]): 0 (Herbicidal rate of 5% or less (almost no effect))
COc1nn(C)c(=O)c(-c2c(-c3ccc(-c4ccccc4)cc3)sc3ccccc23)c1O [1-166] | 3 (Herbicidal rate of 40% or more and less than 70%) | 0 (Herbicidal rate of 5% or less (almost no effect)) | 0 (Herbicidal rate of 5% or less (almost no effect)) | 4 (Herbicidal rate of 70% or more and less than 90%) | 0 (Herbicidal rate of 5% or less (almost no effect)) | 4 (Herbicidal rate of 70% or more and less than 90%) | 0 (Herbicidal rate of 5% or less (almost no effect)) | 0 (Herbicidal rate of 5% or less (almost no effect)) | 0 (Herbicidal rate of 5% or less (almost no effect)) | 0 (Herbicidal rate of 5% or less (almost no effect)) | 5 (Herbicidal rate of 90% or more (almost completely withered)) | 0 (Herbicidal rate of 5% or less (almost no effect)) | 2 (Herbicidal rate of 20% or more and less than 40%) | 1 (Herbicidal rate of 5% or more and less than 20%) | 4 (Herbicidal rate of 70% or more and less than 90%) | 0 (Herbicidal rate of 5% or less (almost no effect)) | 0 (Herbicidal rate of 5% or less (almost no effect)) | 0 (Herbicidal rate of 5% or less (almost no effect)) | 0 (Herbicidal rate of 5% or less (almost no effect)) | 0 (Herbicidal rate of 5% or less (almost no effect)) | I: wild oat, herbicidal effect (wild oat [20]): 0 (Herbicidal rate of 5% or less (almost no effect)); herbicidal effect on E (rice flat sedge), rating 0-5 (rice flat sedge): 5 (Herbicidal rate of 90% or more (almost completely withered)); G: green foxtail, herbicidal effect (green foxtail [21]): 0 (Herbicidal rate of 5% or less (almost no effect)); J: blackgrass, herbicidal effect rating (blackgrass [22]): 0 (Herbicidal rate of 5% or less (almost no effect)); H: barnyard grass, herbicidal effect (barnyard grass [23]): 0 (Herbicidal rate of 5% or less (almost no effect)); P: chickweed, herbicidal effect (chickweed [24]): 3 (Herbicidal rate of 40% or more and less than 70%); M: velvetleaf, herbicidal effect rating (velvetleaf [25]): 0 (Herbicidal rate of 5% or less (almost no effect))
